Assay results as given in patent US11066414B2, “Cot modulators and methods of use thereof” (Gilead Sciences, Inc., priority 2015, dated 2021).
Read-outs that look alike come from different tables or passages of the source.

Experiments:
TNFα = experiment: Cot Monocyte TNFα Cell Based Assay
Human Cot = Human Cot (Homo sapiens (Human), UniProt P41279); experiment: High Throughput Cot Biochemical Assay
[1] = Homo sapiens, Monocyte, read-out: EC50 TNF, LPS-stimulated human monocytes, TNFα TR-FRET
[2] = IC50 HTRF, Cot HTRF (TR-FRET KinEASE) biochemical assay, 400 μM ATP
[3] = Homo sapiens, Monocyte, read-out: EC50 TNF, LPS-stimulated human monocytes, TNFα
[4] = IC50 HTRF, Cot HTRF (TR-FRET) biochemical assay
[5] = read-out: EC50 TNF, LPS-stimulated human monocytes, TNFα TR-FRET
[6] = read-out: IC50 HTRF, Cot HTRF (TR-FRET KinEASE) biochemical assay, 400 μM ATP

Sequence of Human Cot (P41279 30-397): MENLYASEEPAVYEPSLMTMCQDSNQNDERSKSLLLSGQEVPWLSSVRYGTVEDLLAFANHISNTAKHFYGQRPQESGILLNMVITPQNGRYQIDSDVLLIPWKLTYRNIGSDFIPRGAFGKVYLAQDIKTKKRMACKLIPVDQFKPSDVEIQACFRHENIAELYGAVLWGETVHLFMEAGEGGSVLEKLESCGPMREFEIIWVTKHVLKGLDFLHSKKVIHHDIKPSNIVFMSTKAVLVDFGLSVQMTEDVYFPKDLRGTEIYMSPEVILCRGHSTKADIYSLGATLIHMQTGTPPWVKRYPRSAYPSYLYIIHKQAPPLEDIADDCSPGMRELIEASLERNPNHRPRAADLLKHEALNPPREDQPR

Question: How did the EC50 (TNFα; [1]) turn out when `Cc1nc(F)ccc1[C@@H](c1cn(C2(C(F)(F)F)CC2)nn1)N(C)c1cc(Cl)c2ncc(C#N)c(NCC(C)(C)C)c2c1` [Example 979, (S)-8-chloro-6-(((6-fluoro-2-methylpyridin-3-yl)(1-(1-(trifluoromethyl)cyclopropyl)-1H-1,2,3-triazol-4-yl)methyl)(methyl)amino)-4-(neopentylamino)quinoline-3-carbonitrile] was run?
Answer: 1000 nM

Question: And the IC50 (Human Cot; [2])?
Answer: 244 nM

Question: For `[2H]C(Nc1cc(Cl)c2ncc(C#N)c(NCC(C)(C)C)c2c1)(c1cn(C2CC2)nn1)c1scnc1C` (stereo not shown) [Example 102, 8-chloro-6-(((1-cyclopropyl-1H-1,2,3-triazol-4-yl)(4-methylthiazol-5-yl)methyl-d)amino)-4-(neopentyl-amino)quinoline-3-carbonitrile], which EC50 (TNFα; [3]) is on record?
Answer: 461 nM

Question: What about the IC50 (Human Cot; [4]) of the same molecule?
Answer: 3 nM

Question: Which EC50 (TNFα; [3]) does the source give for `Cc1nc([C@H](Nc2cc(C#N)c3ncc(C#N)c(NCC(C)(C)C)c3c2)c2cn(C3(C(F)F)CC3)nn2)c(C)o1` [Example 674, (S)-6-(((1-(1-(difluoromethyl)-cyclopropyl)-1H-1,2,3-triazol-4-yl)(2,5-dimethyloxazol-4-yl)methyl)amino)-4-(neopentylamino)quinoline-3,8-dicarbonitrile] here?
Answer: 301 nM

Question: And the IC50 (Human Cot; [4])?
Answer: 22 nM

Question: Which results are given for `Cc1nc(F)ccc1[C@H](Nc1cc(F)c2ncc(C#N)c(NCC(C)(C)C)c2c1)c1cn(C2(C)CC2)nn1` [Example 488, (S)-8-fluoro-6-(((6-fluoro-2-methylpyridin-3-yl)(1-(1-methylcyclopropyl)-1H-1,2,3-triazol-4-yl)methyl)amino)-4-(neopentyl-amino)quinoline-3-carbonitrile]?
Answer: EC50 (TNFα; [3]): 79 nM; IC50 (Human Cot; [4]): 3 nM

Question: What does the source list for `CC(C)(C)CNc1c(C#N)cnc2c(Cl)cc(N[C@H](c3cn(C4(C)CC4)nn3)c3cccc4ncccc34)cc12` [Example 568, (S)-8-chloro-6-(((1-(1-methylcyclopropyl)-1H-1,2,3-triazol-4-yl)(quinolin-5-yl)methyl)amino)-4-(neopentylamino)-quinoline-3-carbonitrile]?
Answer: EC50 (TNFα; [3]): 170 nM; IC50 (Human Cot; [4]): 5 nM

Question: With `COc1nccc2c([C@H](Nc3cc(Cl)c4ncc(C#N)c(NCC(C)(C)C)c4c3)c3cn(C4(C(F)F)CC4)nn3)cccc12` [Example 914, (S)-8-chloro-6-(((1-(1-(difluoromethyl)cyclo-propyl)-1H-1,2,3-triazol-4-yl)(1-methoxylsoquinolin-5-yl)methyl)amino)-4-(neopentylamino)quinoline-3-carbonitrile] as the molecule, how does the EC50 (TNFα; [5]) read?
Answer: 116 nM

Question: What about the IC50 (Human Cot; [6]) of the same molecule?
Answer: 9 nM

Question: What does the source list for `COc1nccc2c([C@H](Nc3cc(C#N)c4ncc(C#N)c(NCC(C)(C)C)c4c3)c3cn(C4(C)CC4)nn3)cccc12` [Example 809, (S)-6-(((1-methoxylsoquinolin-5-yl)(1-(1-methylcyclopropyl)-1H-1,2,3-triazol-4-yl)methyl)amino)-4-(neopentylamino)quinoline-3,8-dicarbonitrile]?
Answer: EC50 (TNFα; [5]): 32 nM; IC50 (Human Cot; [6]): 3 nM

Question: What does the source list for `Cc1ccc([C@H](Nc2cc(Cl)c3ncc(C#N)c(NCC(C)(C)C)c3c2)c2cn(C3(C(F)F)CC3)nn2)c(C)n1` [Example 717, (S)-8-chloro-6-(((1-(1-(difluoromethyl)cyclopropyl)-1H-1,2,3-triazol-4-yl)(2,6-dimethylpyridin-3-yl)methyl)amino)-4-(neopentylamino)quinoline-3-carbonitrile]?
Answer: EC50 (TNFα; [3]): 100 nM; IC50 (Human Cot; [4]): 8 nM

Question: For `Cc1nc(F)ccc1[C@H](Nc1cc(C#N)c2ncc(C#N)c(NCC34CC(C3)C4)c2c1)c1cn(C2(C(F)F)CC2)nn1` [Example 849, (S)-4-((bicyclo[1.1.1]pentan-1-ylmethyl)amino)-6-(((1-(1-(difluoromethyl)-cyclopropyl)-1H-1,2,3-triazol-4-yl)(6-fluoro-2-methylpyridin-3-yl)methyl)amino)quinoline-3,8-dicarbonitrile], which EC50 (TNFα; [1]) is on record?
Answer: 261 nM

Question: What about the IC50 (Human Cot; [2]) of the same molecule?
Answer: 16 nM

Question: Which results are given for `CC1(n2cc([C@@H](Nc3cc(C#N)c4ncc(C#N)c(NCC(C)(C)C(F)(F)F)c4c3)c3ccc(F)c4ncccc34)nn2)CC1` [Example 813, (S)-6-(((8-fluoroquinolin-5-yl)(1-(1-methylcyclopropyl)-1H-1,2,3-triazol-4-yl)methyl)amino)-4-((3,3,3-trifluoro-2,2-dimethylpropyl)amino)quinoline-3,8-dicarbonitrile]?
Answer: EC50 (TNFα; [1]): 24 nM; IC50 (Human Cot; [2]): 2 nM

Question: For `Cc1nc(F)ccc1[C@H](Nc1cc(C#N)c2ncc(C#N)c(NCC(C)(C)C)c2c1)c1nnn(C2CC2)c1Cl` [Example 680, (S)-6-(((5-chloro-1-cyclopropyl-1H-1,2,3-triazol-4-yl)(6-fluoro-2-methylpyridin-3-yl)methyl)amino)-4-(neopentylamino)quinoline-3,8-dicarbonitrile], which EC50 (TNFα; [3]) is on record?
Answer: 98 nM

Question: What about the IC50 (Human Cot; [4]) of the same molecule?
Answer: 3 nM

Question: For `CC(C)(C)CNc1c(C#N)cnc2c(C#N)cc(N[C@H](c3cn(C4(C)CC4)nn3)c3cccc4cnccc34)cc12` [Example 581, (S)-6-((isoquinolin-5-yl(1-(1-methylcyclo-propyl)-1H-1,2,3-triazol-4-yl)methyl)amino)-4-(neopentylamino)quinoline-3,8-dicarbonitrile], which EC50 (TNFα; [3]) is on record?
Answer: 32 nM

Question: And the IC50 (Human Cot; [4])?
Answer: 2 nM

Question: What does the source list for `Cn1ccc2c([C@H](Nc3cc(C#N)c4ncc(C#N)c(NCC(C)(C)C(F)(F)F)c4c3)c3cn(C4(C(F)F)CC4)nn3)cccc2c1=O` [Example 838, (S)-6-(((1-(1-(difluoromethyl)-cyclopropyl)-1H-1,2,3-triazol-4-yl)(2-methyl-1-oxo-1,2-dihydroisoquinolin-5-yl)methyl)amino)-4-((3,3,3-trifluoro-2,2-dimethylpropyl)-amino)quinoline-3,8-dicarbonitrile]?
Answer: EC50 (TNFα; [1]): 84 nM; IC50 (Human Cot; [2]): 3 nM

Question: `CC[C@@H](Nc1c(C#N)cnc2c(Cl)cc(N[C@@H](c3cccnc3)c3cn(CC[N+](C)(CC)CC)nn3)cc12)c1ccccc1` [Example 212, 2-(4-((S)-((8-chloro-3-cyano-4-(((R)-1-phenylpropyl)amino)quinolin-6-yl)amino)(pyridin-3-yl)methyl)-1H-1,2,3-triazol-1-yl)-N,N-diethyl-N-methylethan-1-aminium] was tested. Which EC50 (TNFα; [3]) did it give?
Answer: 9150 nM

Question: And the IC50 (Human Cot; [4])?
Answer: 44 nM

Question: With `CC(C)n1cc([C@@H](Nc2cc(Cl)c3ncc(C#N)c(Nc4ccc(F)c(Cl)c4)c3c2)c2cnco2)nn1` [Example 298, (R)-8-chloro-4-((3-chloro-4-fluoro-phenyl)amino)-6-(((1-isopropyl-1H-1,2,3-triazol-4-yl)(oxazol-5-yl)methyl)-amino)quinoline-3-carbonitrile] as the molecule, how does the EC50 (TNFα; [3]) read?
Answer: 1500 nM

Question: And the IC50 (Human Cot; [4])?
Answer: 39 nM

Question: `Cc1ncsc1[C@H](Nc1cc(Cl)c2ncc(C#N)c(NCC(C)(C)C)c2c1)c1cn(C2(C(F)F)CC2)nn1` [Example 619, (R)-8-chloro-6-(((1-(1-(difluoromethyl)-cyclopropyl)-1H-1,2,3-triazol-4-yl)(4-methylthiazol-5-yl)methyl)amino)-4-(neopentylamino)quinoline-3-carbonitrile] was tested. Which EC50 (TNFα; [3]) did it give?
Answer: 189 nM

Question: What about the IC50 (Human Cot; [4]) of the same molecule?
Answer: 7 nM

Question: How did the EC50 (TNFα; [3]) turn out when `CC[C@@H](Nc1c(C#N)cnc2c(Cl)cc(N[C@H](c3cn(C4(C(F)(F)F)CC4)nn3)c3ccc(F)nc3C)cc12)c1ccccc1` [Example 440, 8-chloro-6-(((S)-(6-fluoro-2-methyl-pyridin-3-yl)(1-(1-(trifluoromethyl)-cyclopropyl)-1H-1,2,3-triazol-4-yl)methyl)amino)-4-(((R)-1-phenyl-propyl)amino)quinoline-3-carbonitrile] was run?
Answer: 171 nM

Question: What about the IC50 (Human Cot; [4]) of the same molecule?
Answer: 7 nM

Question: For `CC(C)(C)N1CCC(n2cc([C@@H](Nc3cc(Cl)c4ncc(C#N)c(Nc5cccc(Cl)c5F)c4c3)c3cccnc3)nn2)CC1` [Example 286], which EC50 (TNFα; read-out: EC50 TNF, LPS-stimulated human monocytes, TNFα) is on record?
Answer: 121 nM

Question: What about the IC50 (Human Cot; read-out: IC50 HTRF, Cot HTRF (TR-FRET) biochemical assay) of the same molecule?
Answer: 4 nM

Question: Which EC50 (TNFα; [3]) does the source give for `Cc1ncsc1[C@H](Nc1cc(Cl)c2ncc(C#N)c(Nc3cccc(Cl)c3F)c2c1)c1cn(C2CCN(C(C)(C)C)CC2)nn1` [Example 253, (R)-6-(((1-(1-(tert-butyl)piperidin-4-yl)-1H-1,2,3-triazol-4-yl)(4-methylthiazol-5-yl)methyl)amino)-8-chloro-4-((3-chloro-2-fluorophenyl)amino)quinoline-3-carbonitrile] here?
Answer: 66 nM

Question: And the IC50 (Human Cot; [4])?
Answer: 4 nM

Question: With `CC(C)(CNc1c(C#N)cnc2c(Cl)cc(N[C@H](c3cn(C45CC(C4)C5)nn3)c3cccc4ncccc34)cc12)C(F)(F)F` [Example 799, (S)-6-(((1-(bicyclo[1.1.1]pentan-1-yl)-1H-1,2,3-triazol-4-yl)(quinolin-5-yl)methyl)amino)-8-chloro-4-((3,3,3-trifluoro-2,2-dimethylpropyl)amino)quinoline-3-carbonitrile] as the molecule, how does the EC50 (TNFα; [3]) read?
Answer: 46 nM

Question: And the IC50 (Human Cot; [4])?
Answer: 4 nM

Question: Which results are given for `[2H][C@](Nc1cc(Cl)c2ncc(C#N)c(N[C@H](CC)c3ccccc3)c2c1)(c1ccc(F)nc1)c1c[nH]nn1` [Example 134, 8-chloro-6-(((S)-(6-fluoropyridin-3-yl)(1H-1,2,3-triazol-4-yl)methyl-d)amino)-4-(((R)-1-phenylpropyl)amino)quinoline-3-carbonitrile]?
Answer: EC50 (TNFα; [3]): 197 nM; IC50 (Human Cot; [4]): 6 nM

Question: Which results are given for `CCn1ccc2c([C@H](Nc3cc(Cl)c4ncc(C#N)c(NCC(C)(C)C)c4c3)c3cn(C45CC(C4)C5)nn3)cccc2c1=O` [Example 769, (S)-6-(((1-(bicyclo[1.1.1]pentan-1-yl)-1H-1,2,3-triazol-4-yl)(2-ethyl-1-oxo-1,2-dihydroisoquinolin-5-yl)methyl)amino)-8-chloro-4-(neopentylamino)quinoline-3-carbonitrile]?
Answer: EC50 (TNFα; [3]): 28 nM; IC50 (Human Cot; [4]): 2 nM

Question: Which results are given for `Cn1cc2c([C@H](Nc3cc(C#N)c4ncc(C#N)c(NCC(C)(C)C)c4c3)c3cn(C4(C(F)(F)F)CC4)nn3)cccc2n1` [Example 558, (S)-6-(((2-methyl-2H-indazol-4-yl)(1-(1-(trifluoromethyl)cyclopropyl)-1H-1,2,3-triazol-4-yl)methyl)amino)-4-(neopentyl-amino)quinoline-3,8-dicarbonitrile]?
Answer: EC50 (TNFα; [3]): 72 nM; IC50 (Human Cot; [4]): 3 nM
